Data published in US7745191B2, “Method of producing heterodimer derivative of protein phosphatase type 2A enzyme” (Tropical Technology Center Ltd., priority 2005, dated 2010).

Experiment: Phosphatase activity of the purified protein using p-nitrophenylphosphate as substrate
Type: biochemical
Settings: infected High Five cells incubated at 19° C. for 4 days versus 27° C. for 3 days (comparative example); FIG. 4
Experimental: By SDS-PAGE (0.2 μg of protein; 10% SDS-gel), the purified recombinant protein in the recovered eluate was confirmed. The activity of the purified protein was determined according to a method using p-nitrophenylphosphate as substrate (Takai et al. 1995, Biochem J. 306:657-665).
In both figures, the term “27° C.” indicates the tagged catalytic unit of PP2A (comparative example), which was prepared in the same manner as in Example 3 except that the cells infected with the recombinant baculovirus was incubated at 27° C. for 3 days. In FIG. 3, the both end side lanes indicate a marker, the 2nd lane from left indicates the tagged catalytic unit of PP2A prepared by incubation at 27° C., and the 3rd lane from left indicates the tagged catalytic unit of PP2A prepared by incubation at 19° C.

tagged catalytic unit of PP2A: Recombinant human PP2A catalytic subunit carrying a polyhistidine tag (His-PP2Acα, His-PP2Acβ), expressed in baculovirus-infected High Five cells
enhancement of activity to p-nitrophenylphosphate: ≥ 6 times
